Results on one molecule are retold here after paper PMC4796655, “Structural insights into the methyl donor recognition model of a novel membrane-binding protein UbiG” (Scientific Reports, 2016).

Structures are written as SMILES.

What all share (type): binding
What all share (conditions): read-out: [drawing 1] /

In assay [1] the target is T1, UbiG (Escherichia coli, UniProt P17993, DEL165-187).
T1 construct: full-length, 240 residues, pET28a-UbiG (1-240), expressed in E. coli BL21 (DE3); purified as described previously
Put plainly: isothermal titration calorimetry; X-ray structure of the complex […] Å.

Assay [2] addresses T2, UbiG (Escherichia coli, UniProt P17993, I177A/P182A/V181A).
T2 construct: full-length, 240 residues, pET28a-UbiG (1-240), expressed in E. coli BL21 (DE3); purified as described previously
Kind of assay: isothermal titration calorimetry. From the text:
(§1) isothermal titration calorimetry on UbiG

The target of assay [3] is T3, UbiG (Escherichia coli, UniProt P17993).
T3 construct: full-length, 240 residues, pET28a-UbiG (1-240), expressed in E. coli BL21 (DE3); purified as described previously
T3 sequence (P17993 1-240): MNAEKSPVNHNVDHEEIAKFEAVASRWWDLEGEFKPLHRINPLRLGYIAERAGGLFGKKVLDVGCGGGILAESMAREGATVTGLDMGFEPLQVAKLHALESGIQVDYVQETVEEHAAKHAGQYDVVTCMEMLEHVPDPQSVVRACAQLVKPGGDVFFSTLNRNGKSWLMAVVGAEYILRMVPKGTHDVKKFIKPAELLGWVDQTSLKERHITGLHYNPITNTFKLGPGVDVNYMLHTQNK
Kind of assay: isothermal titration calorimetry.
From the text: as §1

Assay [4] has as its target T4, UbiG (Escherichia coli, UniProt P17993, V172A/Y176A).
T4 construct: full-length, 240 residues, pET28a-UbiG (1-240), expressed in E. coli BL21 (DE3); purified as described previously
Kind of assay: isothermal titration calorimetry.
From the text: as §1

T4 sequence (P17993 whole entry V172A/Y176A): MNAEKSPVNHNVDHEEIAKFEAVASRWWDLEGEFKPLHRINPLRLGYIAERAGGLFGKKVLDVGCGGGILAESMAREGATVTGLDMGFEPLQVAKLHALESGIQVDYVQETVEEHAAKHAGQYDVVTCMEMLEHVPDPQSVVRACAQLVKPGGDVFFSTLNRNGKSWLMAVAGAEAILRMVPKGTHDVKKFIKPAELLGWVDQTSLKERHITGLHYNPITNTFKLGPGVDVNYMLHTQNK
T2 sequence (P17993 whole entry I177A/V181A/P182A): as the sequence (P17993 whole entry V172A/Y176A) above, with A172V, A176Y, I177A, V181A, P182A counted along it
T1 sequence (P17993 other isoform, or with tags, fused parts or gaps DEL165-187): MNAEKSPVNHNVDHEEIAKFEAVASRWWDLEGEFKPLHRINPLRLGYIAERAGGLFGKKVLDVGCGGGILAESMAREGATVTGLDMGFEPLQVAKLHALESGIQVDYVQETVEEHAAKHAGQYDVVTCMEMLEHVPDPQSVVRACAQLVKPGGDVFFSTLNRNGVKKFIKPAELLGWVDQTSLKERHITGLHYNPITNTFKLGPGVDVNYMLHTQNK

Turning to `Nc1ncnc2c1ncn2[C@@H]1O[C@H](CSCC[C@H](N)C(=O)O)[C@@H](O)[C@H]1O` [SAH], the Kd on UbiG [1] amounted to 1.84 ± 0.16 µM; at UbiG [2], 2.77 ± 0.36 µM; on UbiG [3] it was 104 ± 17.2 µM; at UbiG [4] it was 3.37 ± 0.84 µM.
